Drawing on ChEMBL document CHEMBL5236622, “Krasilnikolides A and B and Detalosylkrasilnikolide A, Cytotoxic 20-Membered Macrolides from the Genus Krasilnikovia: Assignment of Anomeric Configuration by J-Based Configuration Analysis” (J Nat Prod, 2022), this text covers MIC and IC50 for three compounds.

Experiment [1] relates to Kocuria rhizophila. As to the kind of experiment: Antibacterial activity against Kocuria rhizophila ATCC9341 assessed as inhibition of bacterial growth incubated for 20 hrs by liquid microculture method. Type of experiment: functional.
Experiment [2] concerns Staphylococcus aureus. As to the kind of experiment: Antibacterial activity against Staphylococcus aureus FDA209P JC-1 assessed as inhibition of bacterial growth incubated for 20 hrs by liquid microculture method. Type of experiment: functional.
For experiment [3], the system named is P388. Kind of experiment: Cytotoxicity against mouse P388 cells assessed as inhibition of cell growth incubated for 48 hrs by MTT assay. Type of experiment: functional, cell-based. The settings on record: P388, 48 h. For orientation: Tetrazolium assays rely on reduction of a dye to a coloured formazan, in cell work by metabolically active cells.

Converted amounts (≈) assume the structure as drawn.

Turning to `C/C=C(\C)[C@H]1OC(=O)[C@H](C)[C@@H](O[C@@H]2O[C@@H](C)[C@@H](O)[C@@H](O)[C@H]2O)/C(C)=C/C=C/[C@H](C)C/C(C)=C/[C@@H](C)[C@H](O)C[C@@H](O)/C(C)=C/[C@H]1C`, the values for the MIC in experiment [1] and in experiment [2] were 25 µg/mL (≈ 39.4 µM) and 50 µg/mL (≈ 78.8 µM), respectively. The IC50 (as a rule, the concentration at which inhibition is half-maximal) in experiment [3] is 13.9 µM.

For the compound `C/C=C(\CC)[C@H]1OC(=O)[C@H](C)[C@@H](O[C@@H]2O[C@@H](C)[C@@H](O)[C@@H](O)[C@H]2O)/C(C)=C/C=C/[C@H](C)C/C(C)=C/[C@@H](C)[C@H](O)C[C@@H](O)/C(C)=C/[C@H]1C`, the MIC (in general, the least concentration at which growth counts as inhibited) in experiment [1] stood at 25 µg/mL (≈ 38.5 µM). In experiment [3], the IC50 amounted to 8.4 µM.

Regarding `C/C=C(\C)[C@H]1OC(=O)[C@H](C)[C@@H](O)/C(C)=C/C=C/[C@H](C)C/C(C)=C/[C@@H](C)[C@H](O)C[C@@H](O)/C(C)=C/[C@H]1C`, the MIC in experiment [1] was 25 µg/mL (≈ 51.2 µM). Besides, the IC50 in experiment [3] worked out at 3.9 µM.
